Literature values as cited in patent US9023395B2, “Formulation of active agent loaded activated PLGA nanoparticles for targeted cancer nano-therapeutics” (University of North Texas Health Science Center at Fort …, priority 2007, dated 2015).

Details: for Solubility: solvent in which the linker is soluble

water solubility	Solubility	Compound
water insoluble	DMSO	O=C(CCN1C(=O)C=CC1=O)ON1C(=O)CCC1=O [BMPS, N-[b-maleimidopropyl-oxy] succinimide ester]
water insoluble	DMSO	O=C(CCCC(=O)ON1C(=O)CCC1=O)ON1C(=O)CCC1=O [DSG, Disuccinimidyl glutarate]
–	DMSO	CCCCCCCCCCCCCCCC(=O)ON1C(=O)CCC1=O [PAS, Palmitic acid N- hydroxysuccin- imide ester]
